Experimental data as given in patent publication US6048856A, “Heterocyclic compounds” (Novo Nordisk A/S, priority 1997, dated 2000).
Structures can show the parent of a compound that is named as a salt.

Test system: histamine induced paw oedema
Assay: Histamine induced paw oedema test in rats
Format: in vivo, male Sprague-Dawley rats
Conditions: Rattus norvegicus, ip; intraperitoneal, 15 minutes before anaesthetics; paw swelling 20 minutes after histamine 50 microliter
Method: Compounds of formula I may be used to treat all painful, hyperalgesic and/or inflammatory conditions in which C-fibres play a pathophysiological role by eliciting neurogenic pain or inflammation, i.e.:
I. Histamine Induced Paw Oedema
The rat histamine paw oedema test was performed essentially as described by Amann et al. (Europ. J. Pharmacol. 279, 227-231, 1995). In brief 250-300 g male Sprague-Dawley rats were anaesthetized with pentobarbital sodium, and placed on a 32 degree Celsius heated table. Ten minutes later histamine (50 micoliter, 3 mg/ml) was injected in the right hind paw and 20 minutes hereafter the paw swelling was determined by water plethysmography (Ugo Basile). Test compounds were administered intraperitoneally at 15 minutes before the anaesthetics.
Values for inhibition of histamine induced oedema response for some representative compounds are recorded in table 1.

**Q.** How did the inhibition at 1 mg/kg turn out when N#CC(c1ccccc1)C1CCN(CCC=C2c3ccccc3CCc3ccccc32)CC1 (stereo not shown) [Example 5, 2-(1-(3-(10,11-Dihydro-5H-dibenzo[a,d]cyclohepten-5-ylidene)-1-propyl)-4-piperidyl)-2-phenylacetonitrile hydrochloride] was run?
**A.** 30%
